Patent US8614237B2, “Benzofuran-4,5-diones as selective peptide deformylase inhibitors” (Sloan-Kettering Institute for Cancer Research, priority 2009, dated 2013)

What was measured:
APN = APN %I 100uM
Method: (§1) Table printed on a drawing sheet, Figure 5
Head of the field: APN %I 100uM
(§2) Footnotes: -26 124 % inhibition
(§3) The patent's description of the figure: FIG. 5.
Where the first naming reader finds the target: head: APN %I 100uM

EcPDF [1] = test system: EcPDF
Method: Head of the field: EcPDF %I 100uM
(§4) Specificity profiling of the derivatives of benzofuran-4,5-diones.
Where the first naming reader finds the target: head: EcPDF %I 100uM

MMP-1 = MMP-1 %I 100uM
Method: as §1
Head of the field: MMP-1 %I 100uM
as §2, §3
Where the first naming reader finds the target: head: MMP-1 %I 100uM

EcPDF [2] = test system: EcPDF; remark: listed apart in the source
Method: Head of the field: EcPDF %I 10uM
as §4
Where the first naming reader finds the target: head: EcPDF %I 10uM

HsPDF [3] = target: T1, HsPDF (Homo sapiens, UniProt Q9HBH1); test: HsPDF %I 10uM
T1 construct: A 63 amino acid N-terminally truncated human peptide deformylase (HsPDF); 6His (C); made in house; host or cells: E. coli BL21 (DE3), co-transformed with the GroES/EL chaperone plasmid
Method: as §1
Head of the field: HsPDF %I 10uM
as §2, §3
Where the first naming reader finds the target: head: HsPDF %I 10uM

HsPDF [4] = target: T2, HsPDF (Homo sapiens, UniProt Q9HBH1); test: FLUO functional assay (fluorescamine, substrate fMAHA); type: biochemical; settings: 0.5 μM HsPDF, upper limit 10 μM compound
T2 construct: A 63 amino acid N-terminally truncated human peptide deformylase (HsPDF); 6His (C); made in house; host or cells: E. coli BL21 (DE3), co-transformed with the GroES/EL chaperone plasmid
T2 sequence (Q9HBH1 64-243 limits assumed): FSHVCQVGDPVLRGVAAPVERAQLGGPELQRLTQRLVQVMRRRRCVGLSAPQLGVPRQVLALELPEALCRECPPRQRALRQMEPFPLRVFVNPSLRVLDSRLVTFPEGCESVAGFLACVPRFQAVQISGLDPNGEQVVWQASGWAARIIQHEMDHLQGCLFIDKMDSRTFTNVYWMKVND
Method: High controls consisted of 1% DMSO (v/v). […] The deformylation reaction mixture was incubated for one hour at room temperature. A separate set of plates containing 3 μL of fluorescamine at 1 mg/mL in 100% DMSO was prepared for the labeling step. Then, 17 μL of the reaction mixture from the original set of plates was transferred to the plates containing the fluorescamine solution for the labeling step. The readout was performed on a Perkin Elmer VICTOR^3 V™ Multi label counter, using an excitation wavelength of 355 nm, and an emission wavelength of 460 nm. […] Compounds inducing a variation of fluorescence greater than 20% were flagged as optically active compounds.
High controls consisted of 1% DMSO (v/v). […] The deformylation reaction mixture was incubated for one hour at room temperature. A separate set of plates containing 3 μL of fluorescamine at 1 mg/mL in 100% DMSO was prepared for the labeling step. Then, 17 μL of the reaction mixture from the original set of plates was transferred to the plates containing the fluorescamine solution for the labeling step. The readout was performed on a Perkin Elmer VICTOR3 V™ Multi label counter, using an excitation wavelength of 355 nm, and an emission wavelength of 460 nm.

HsPDF [5] = target: T1, HsPDF; test: HsPDF %I 100uM
Method: as §1
Head of the field: HsPDF %I 100uM
as §2, §3
Where the first naming reader finds the target: head: HsPDF %I 100uM

SMILES: COc1ccc(C(=O)c2coc3c(Br)cc(O)cc23)cc1 [SKC-BF-Int7B, (7-Bromo-5-hydroxy-benzofuran-3-yl)-(4-methoxyphenyl)-methanone]
- APN %I 100uM (APN): -5 %I
- EcPDF %I 100uM (EcPDF [1]): 9 %I
- MMP-1 %I 100uM (MMP-1): -19 %I
- EcPDF %I 10uM (EcPDF [2]): 18 %I

SMILES: COc1ccc(C(=O)c2coc3c2C(=O)C(=O)C(Cl)=C3Cl)cc1 [SKC-BF-05, 6,7-Dichloro-3-(4-methoxy-benzoyl)-benzofuran-4,5-dione]
- EcPDF %I 100uM (EcPDF [1]): 1 %I
- MMP-1 %I 100uM (MMP-1): -19 %I
- EcPDF %I 10uM (EcPDF [2]): 0 %I

SMILES: COc1ccc(C(=O)c2coc3ccc(O)cc23)cc1 [SKC-BF-Int9, (5-Hydroxy-benzofuran-3-yl)-(4-methoxyphenyl)-methanone]
- APN %I 100uM (APN): 4 %I
- EcPDF %I 10uM (EcPDF [2]): 5 %I

SMILES: COc1cc(C(=O)c2coc3c2C(=O)C(=O)c2ccccc2-3)cc(OC)c1OC [SKC-NF-03, 3-(3,4,5-Trimethoxy-benzoyl)-naphtho[1,2-b]furan-4,5-dione]
- EcPDF %I 100uM (EcPDF [1]): 21 %I
- MMP-1 %I 100uM (MMP-1): 21 %I
- HsPDF %I 10uM (HsPDF [3]): 25 %I
- EcPDF %I 10uM (EcPDF [2]): 18 %I

SMILES: O=C1C(=O)c2c(C(=O)c3ccsc3)coc2C(Cl)=C1Cl [SKI 417512, 6,7-dichloro-3-(thiophene-3-carbonyl)benzofuran-4,5-dione]
- IC50 (HsPDF [4]): 1800 nM

SMILES: O=C1C(=O)c2c(C(=O)c3ccc4c(c3)OCCO4)coc2C(Br)=C1Br [SKI 417504, 6,7-dibromo-3-(2,3-dihydrobenzo[b][1,4]dioxine-6-carbonyl)benzofuran-4,5-dione]
- IC50 (HsPDF [4]): 2300 nM

SMILES: COc1cc(C(=O)c2coc3c(Br)c(Br)c(O)cc23)cc(OC)c1OC [SKC-BF-Int21, (6,7-Dibromo-5-hydroxy-benzofuran-3-yl)-(3,4,5-trimethoxy-phenyl)methanone]
- HsPDF %I 100uM (HsPDF [5]): 5 %I
- EcPDF %I 100uM (EcPDF [1]): 7 %I
- EcPDF %I 10uM (EcPDF [2]): 4 %I

SMILES: COc1ccc(C(=O)c2coc3c2C(=O)C(=O)C=C3Cl)cc1 [SKC-BF-03, 7-Chloro-3-(4-methoxybenzoyl)-benzofuran-4,5-dione]
- EcPDF %I 10uM (EcPDF [2]): -6 %I

SMILES: COc1ccc(C(=O)c2coc3ccc(O)c(Br)c23)cc1 [SKC-BF-Int7C, (4-Bromo-5-hydroxy-benzofuran-3-yl)-(4-methoxyphenyl)-methanone]
- HsPDF %I 100uM (HsPDF [5]): -20 %I
- APN %I 100uM (APN): -14 %I
- EcPDF %I 100uM (EcPDF [1]): -4 %I
- HsPDF %I 10uM (HsPDF [3]): 3 %I
- EcPDF %I 10uM (EcPDF [2]): -4 %I

SMILES: O=C(c1ccccc1)c1coc2c(Cl)c(Cl)c(O)cc12 [SKC-BF-Int4, (6,7-Dichloro-5-hydroxy-benzofuran-3-yl)-phenyl-methanone]
- HsPDF %I 100uM (HsPDF [5]): 24 %I
- APN %I 100uM (APN): 6 %I
- EcPDF %I 100uM (EcPDF [1]): 1 %I
- MMP-1 %I 100uM (MMP-1): -20 %I
- HsPDF %I 10uM (HsPDF [3]): 8 %I
- EcPDF %I 10uM (EcPDF [2]): 6 %I

SMILES: COc1ccc(C(=O)c2coc3ccc(O)cc23)cc1OC [SKC-BF-Int13, (3,4-Dimethoxy-phenyl)-(5-hydroxy-benzofuran-3-yl)-methanone]
- HsPDF %I 100uM (HsPDF [5]): 8 %I
- EcPDF %I 100uM (EcPDF [1]): 7 %I
- MMP-1 %I 100uM (MMP-1): 3 %I
- HsPDF %I 10uM (HsPDF [3]): -6 %I
- EcPDF %I 10uM (EcPDF [2]): -26 %I

SMILES: COc1ccc(C(=O)c2coc3c(Br)cc(O)c(Br)c23)cc1 [SKC-BF-Int7D, (4,7-Dibromo-5-hydroxy-benzofuran-3-yl)-(4-methoxy-phenyl)-methanone]
- HsPDF %I 100uM (HsPDF [5]): -9 %I
- EcPDF %I 100uM (EcPDF [1]): -8 %I
- HsPDF %I 10uM (HsPDF [3]): 0 %I

SMILES: COc1ccc(C(=O)c2coc3c2C(=O)C(=O)C(Br)=C3)cc1 [SKC-BF-06, 6-Bromo-3-(4-methoxybenzoyl)-benzofuran-4,5-dione]
- HsPDF %I 10uM (HsPDF [3]): 29 %I

SMILES: O=C1C(=O)c2c(C(=O)c3ccc(C(=O)O)cc3)coc2C(Br)=C1Br [SKI 417518, 4-(6,7-dibromo-4,5-dioxo-4,5-dihydrobenzofuran-3-carbonyl)benzoic acid]
- IC50 (HsPDF [4]): 2300 nM

SMILES: COc1cc(C(=O)c2coc3c2C(=O)C(=O)C(Cl)=C3Cl)cc(OC)c1OC [SKC-BF-11, 6,7-Dichloro-3-(3,4,5-trimethoxy-benzoyl)-benzofuran-4,5-dione]
- EcPDF %I 100uM (EcPDF [1]): 27 %I
- MMP-1 %I 100uM (MMP-1): 32 %I

SMILES: COc1ccc(C(=O)c2coc3c(Cl)c(Cl)c(O)cc23)cc1OC [SKC-BF-Int16, (6,7-Dichloro-5-hydroxy-benzofuran-3-yl)-(3,4-dimethoxy-phenyl)-methanone]
- HsPDF %I 100uM (HsPDF [5]): -21 %I
- EcPDF %I 100uM (EcPDF [1]): -6 %I
- HsPDF %I 10uM (HsPDF [3]): -24 %I
- EcPDF %I 10uM (EcPDF [2]): 4 %I

SMILES: O=C1C(=O)c2c(C(=O)c3ccc(-n4ccnc4)cc3)coc2C(Br)=C1Br [SKI 417499, 3-(4-(1H-imidazol-1-yl)benzoyl)-6,7-dibromobenzofuran-4,5-dione]
- IC50 (HsPDF [4]): 1800 nM

SMILES: COc1ccc(C(=O)c2coc3c(Br)c(Br)c(O)cc23)cc1OC [SKC-BF-Int14, (6,7-Dibromo-5-hydroxy-benzofuran-3-yl)-(3,4-dimethoxy-phenyl)-methanone]
- APN %I 100uM (APN): -6 %I
- EcPDF %I 100uM (EcPDF [1]): -20 %I
- MMP-1 %I 100uM (MMP-1): -20 %I
- HsPDF %I 10uM (HsPDF [3]): 3 %I
- EcPDF %I 10uM (EcPDF [2]): 3 %I

SMILES: O=C(c1ccccc1)c1coc2ccc(O)cc12 [SKC-BF-Int3, (5-Hydroxy-benzofuran-3-yl)-phenyl-methanone]
- EcPDF %I 100uM (EcPDF [1]): 7 %I
- EcPDF %I 10uM (EcPDF [2]): 7 %I

SMILES: COc1ccc(C(=O)c2coc3cc(Cl)c(O)c(Cl)c23)cc1 [SKC-BF-Int10D, (4,6-Dichloro-5-hydroxy-benzofuran-3-yl)-(4-methoxyphenyl)-methanone]
- HsPDF %I 100uM (HsPDF [5]): 26 %I
- EcPDF %I 100uM (EcPDF [1]): 3 %I
- HsPDF %I 10uM (HsPDF [3]): 21 %I
- EcPDF %I 10uM (EcPDF [2]): 4 %I

SMILES: COc1ccc(C(=O)c2coc3c2C(=O)C(=O)c2ccccc2-3)cc1OC [SKC-NF-02, 3-(3,4-Dimethoxy-benzoyl)-naphtho[1,2-b]furan-4,5-dione]
- HsPDF %I 100uM (HsPDF [5]): 36 %I
- APN %I 100uM (APN): 20 %I
- EcPDF %I 100uM (EcPDF [1]): 30 %I
- MMP-1 %I 100uM (MMP-1): 21 %I
- HsPDF %I 10uM (HsPDF [3]): 18 %I
- EcPDF %I 10uM (EcPDF [2]): 17 %I

SMILES: COc1cc(C(=O)c2coc3ccc(O)cc23)cc(OC)c1OC [SKC-BF-Int19]
- HsPDF %I 100uM (HsPDF [5]): 31 %I
- EcPDF %I 100uM (EcPDF [1]): 7 %I
- MMP-1 %I 100uM (MMP-1): 19 %I
- HsPDF %I 10uM (HsPDF [3]): 4 %I

SMILES: COc1ccc(C(=O)c2coc3cc(Br)c(O)cc23)cc1 [SKC-BF-Int7A, (6-Bromo-5-hydroxy-benzofuran-3-yl)-(4-methoxyphenyl)-methanone]
- HsPDF %I 100uM (HsPDF [5]): -5 %I
- APN %I 100uM (APN): -17 %I
- EcPDF %I 100uM (EcPDF [1]): -14 %I
- HsPDF %I 10uM (HsPDF [3]): -17 %I
- EcPDF %I 10uM (EcPDF [2]): -8 %I

SMILES: COc1cc(C(=O)c2coc3c(Cl)c(Cl)c(O)cc23)cc(OC)c1OC [SKC-BF-Int22, (6,7-Dichloro-5-hydroxy-benzofuran-3-yl)-(3,4,5-trimethoxy-phenyl)methanone]
- HsPDF %I 100uM (HsPDF [5]): 18 %I
- APN %I 100uM (APN): 2 %I
- EcPDF %I 100uM (EcPDF [1]): 2 %I
- MMP-1 %I 100uM (MMP-1): -14 %I
- EcPDF %I 10uM (EcPDF [2]): 4 %I

SMILES: COc1ccc(C(=O)c2coc3c(Cl)cc(O)c(Cl)c23)cc1 [SKC-BF-Int10E, (4,7-Dichloro-5-hydroxy-benzofuran-3-yl)-(4-methoxy-phenyl)-methanone]
- HsPDF %I 100uM (HsPDF [5]): 9 %I
- APN %I 100uM (APN): -4 %I
- EcPDF %I 100uM (EcPDF [1]): -4 %I
- MMP-1 %I 100uM (MMP-1): -4 %I

SMILES: O=C1C(=O)c2c(C(=O)c3ccccc3)coc2C(Br)=C1Br [SKI 417508, 3-benzoyl-6,7-dibromobenzofuran-4,5-dione]
- IC50 (HsPDF [4]): 3400 nM

SMILES: COc1ccc(C(=O)c2coc3c(Cl)c(Cl)c(O)cc23)cc1 [SKC-BF-Int10F, (6,7-Dichloro-5-hydroxy-benzofuran-3-yl)-(4-methoxyphenyl)-methanone]
- APN %I 100uM (APN): -4 %I
- HsPDF %I 10uM (HsPDF [3]): 4 %I
